Source: PMC9046087, “Structural basis of tethered agonism of the adhesion GPCRs ADGRD1 and ADGRF1” (Nature, 2022)
Ends that are not written are not given here.

Experiments:
Type in all cases: cell-based
ADGRF1 [1] = biological target: T1, ADGRF1 (Homo sapiens, UniProt Q5T601, R788A); experiment: BRET assay using TRUPATH biosensors, Gs activation of ADGRF1; conditions: Gs, ADGRF1 R788^6.37bA, n = 3
T1 construct: Flag (N); expressed in transfected cells; host or cells: HEK293F
Outline: (§1)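 G protein activation by synthetic stalk peptides, read as GFP2-to-RLuc8 emission ratio from the fifth of five successive readings. Cells: HEK293F expressing receptor (WT or mutant) with GαsS-RLuc8 or Gαi1-RLuc8 plus Gβ3 and Gγ9-GFP2 (2:1:1:1). Pre-incubated 30 min at 37 °C; substrate coelenterazine 400a.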

ADGRF1 [2] = biological target: T2, ADGRF1 (Homo sapiens, UniProt Q5T601); experiment: as above; conditions: Gs, ADGRF1 WT, n = 7
T2 construct: Flag (N); expressed in transfected cells; host or cells: HEK293F
T2 sequence (Q5T601 20-910): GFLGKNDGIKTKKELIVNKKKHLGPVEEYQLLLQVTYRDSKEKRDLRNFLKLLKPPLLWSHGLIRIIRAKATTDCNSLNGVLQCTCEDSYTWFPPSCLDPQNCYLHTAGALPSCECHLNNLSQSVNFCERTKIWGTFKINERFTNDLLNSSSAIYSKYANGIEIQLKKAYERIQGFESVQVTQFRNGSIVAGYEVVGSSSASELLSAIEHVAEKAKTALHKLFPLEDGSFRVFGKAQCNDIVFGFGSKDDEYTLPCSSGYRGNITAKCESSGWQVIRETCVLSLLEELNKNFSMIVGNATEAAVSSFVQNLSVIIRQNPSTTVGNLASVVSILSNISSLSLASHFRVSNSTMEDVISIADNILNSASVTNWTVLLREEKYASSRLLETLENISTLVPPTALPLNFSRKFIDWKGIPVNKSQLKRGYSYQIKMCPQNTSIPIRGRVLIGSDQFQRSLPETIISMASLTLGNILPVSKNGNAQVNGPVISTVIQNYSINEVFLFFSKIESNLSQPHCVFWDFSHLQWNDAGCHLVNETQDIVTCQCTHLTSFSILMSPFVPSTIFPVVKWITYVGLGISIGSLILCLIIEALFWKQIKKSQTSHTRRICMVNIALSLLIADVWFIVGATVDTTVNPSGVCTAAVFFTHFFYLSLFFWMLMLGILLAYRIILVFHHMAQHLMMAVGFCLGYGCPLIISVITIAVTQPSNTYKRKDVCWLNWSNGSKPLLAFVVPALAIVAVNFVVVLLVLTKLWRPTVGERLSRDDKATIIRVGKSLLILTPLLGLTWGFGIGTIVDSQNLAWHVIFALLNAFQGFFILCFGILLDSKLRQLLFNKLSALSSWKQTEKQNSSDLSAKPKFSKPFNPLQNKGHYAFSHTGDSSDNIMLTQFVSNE
Outline: as §1

ADGRD1 = biological target: T3, ADGRD1 (Homo sapiens, UniProt Q6QNK2); experiment: BRET assay using TRUPATH biosensors, G protein activation of ADGRD1; conditions: Gs, ADGRD1 WT, n = 3
T3 construct: Flag (N); expressed in transfected cells; host or cells: HEK293F
T3 sequence (Q6QNK2 26-874): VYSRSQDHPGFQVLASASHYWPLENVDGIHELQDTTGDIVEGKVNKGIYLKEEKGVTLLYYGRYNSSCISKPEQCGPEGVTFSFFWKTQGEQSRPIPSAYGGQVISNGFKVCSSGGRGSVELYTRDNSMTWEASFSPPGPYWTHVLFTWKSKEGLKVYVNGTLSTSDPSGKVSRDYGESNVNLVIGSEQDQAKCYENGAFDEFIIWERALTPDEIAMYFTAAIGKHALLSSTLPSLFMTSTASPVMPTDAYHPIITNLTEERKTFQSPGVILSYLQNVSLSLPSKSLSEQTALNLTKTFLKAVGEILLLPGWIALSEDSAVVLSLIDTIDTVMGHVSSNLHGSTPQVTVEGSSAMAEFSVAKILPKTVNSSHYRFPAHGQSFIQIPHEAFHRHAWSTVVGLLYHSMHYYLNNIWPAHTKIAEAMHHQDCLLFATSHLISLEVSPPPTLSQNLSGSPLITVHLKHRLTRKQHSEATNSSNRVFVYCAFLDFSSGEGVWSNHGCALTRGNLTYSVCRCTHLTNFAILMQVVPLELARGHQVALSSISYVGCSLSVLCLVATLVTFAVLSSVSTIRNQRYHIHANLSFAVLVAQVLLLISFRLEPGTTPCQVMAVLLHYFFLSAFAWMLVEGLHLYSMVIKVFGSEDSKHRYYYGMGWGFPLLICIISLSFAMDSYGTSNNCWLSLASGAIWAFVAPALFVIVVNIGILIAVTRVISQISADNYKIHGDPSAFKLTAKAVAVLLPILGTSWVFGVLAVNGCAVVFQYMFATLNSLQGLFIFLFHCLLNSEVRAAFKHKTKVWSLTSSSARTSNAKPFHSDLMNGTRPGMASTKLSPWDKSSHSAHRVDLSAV
Procedure: To study the synthetic stalk peptide-induced G protein activation of ADGRD1 and ADGRF1, a BRET assay using TRUPATH biosensors was conducted to measure the proximal interaction between RLuc8 fused to the Gα subunit and GFP2 fused to the Gγ subunit. The TRUPATH suite of biosensors was obtained from Addgene (Addgene kit no. 1000000163) as a gift from B. Roth, including GαsS-RLuc8, Gαi1-RLuc8, Gβ3 and Gγ9-GFP2 as previously described.
The wild-type or mutant ADGRD1 and ADGRF1 were transiently co-transfected with plasmids encoding Gα-RLuc8 (GαsS-RLuc8 for Gs activation assay; Gαi1-RLuc8 for Gi activation assay), Gβ3 and Gγ9-GFP2 at a ratio of 2:1:1:1 (receptor plasmid, 800 ng; G protein subunit plasmids, 400 ng for each) in 2 ml HEK293F cells at a density of 1.2 × 10^6 cells per ml. Cell cultivation and receptor surface expression measurement were performed as described above. The cells were plated into 96-well white plates (40,000 cells per well) in 60 μl of assay buffer and incubated at 37 °C for 30 min. Then 10 μl of freshly prepared 50 μM coelenterazine 400a (Nanolight Technologies) was added. […] The cells were stimulated with 30 μl of synthetic stalk peptide at different concentrations and the BRET signals were monitored continuously five times. The last measurements were used in data analysis. The BRET ratios were calculated as the ratio of the GFP2 emission to RLuc8 emission.

[3] = read-out: pEC50 (mean ± s.e.m.) (converted)

T1 sequence (Q5T601 20-910 R788A): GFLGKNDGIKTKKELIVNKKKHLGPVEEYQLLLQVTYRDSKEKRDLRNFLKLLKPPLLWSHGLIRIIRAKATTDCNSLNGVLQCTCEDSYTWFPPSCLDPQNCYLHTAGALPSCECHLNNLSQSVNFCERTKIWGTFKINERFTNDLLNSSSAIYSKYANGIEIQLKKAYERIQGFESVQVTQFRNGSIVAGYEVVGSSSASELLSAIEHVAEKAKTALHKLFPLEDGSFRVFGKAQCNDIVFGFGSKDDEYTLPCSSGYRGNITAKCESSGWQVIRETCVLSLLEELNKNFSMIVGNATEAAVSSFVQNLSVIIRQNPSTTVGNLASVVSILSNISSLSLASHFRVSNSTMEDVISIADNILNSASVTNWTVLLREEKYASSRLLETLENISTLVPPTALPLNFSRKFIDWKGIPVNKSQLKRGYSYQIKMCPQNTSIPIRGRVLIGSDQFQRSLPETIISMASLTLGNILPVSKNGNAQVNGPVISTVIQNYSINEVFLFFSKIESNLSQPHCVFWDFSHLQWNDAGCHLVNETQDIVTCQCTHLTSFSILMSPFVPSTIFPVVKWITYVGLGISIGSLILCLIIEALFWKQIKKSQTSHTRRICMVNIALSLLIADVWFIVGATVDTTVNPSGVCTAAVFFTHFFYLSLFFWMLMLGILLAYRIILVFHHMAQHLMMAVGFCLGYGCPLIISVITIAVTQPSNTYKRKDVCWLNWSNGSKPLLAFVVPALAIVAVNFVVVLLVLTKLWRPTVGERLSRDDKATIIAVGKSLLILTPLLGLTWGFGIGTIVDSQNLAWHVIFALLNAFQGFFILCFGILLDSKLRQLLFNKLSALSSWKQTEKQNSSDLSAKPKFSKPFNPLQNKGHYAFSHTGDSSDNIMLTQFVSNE

Emax (mean ± s.e.m.) (ADGRF1 [1]): 112 ± 15 % of WT | EC50 (ADGRF1 [1]; [3]): 933 nM | Emax (mean ± s.e.m.) (ADGRF1 [2]): 100 ± 9 % of WT | EC50 (ADGRF1 [2]; [3]): 35.5 nM | Emax (mean ± s.e.m.) (ADGRD1): 67 ± 12 % of WT | EC50 (ADGRD1; [3]): 1260 nM
Sequence: TSFSILMSPFVP [pF1]
